Molecular target: T1, Tyrosine-protein kinase JAK3 [512-1124] (Homo sapiens, UniProt P52333)
T1 construct: 512-1124
T1 sequence (P52333 whole entry): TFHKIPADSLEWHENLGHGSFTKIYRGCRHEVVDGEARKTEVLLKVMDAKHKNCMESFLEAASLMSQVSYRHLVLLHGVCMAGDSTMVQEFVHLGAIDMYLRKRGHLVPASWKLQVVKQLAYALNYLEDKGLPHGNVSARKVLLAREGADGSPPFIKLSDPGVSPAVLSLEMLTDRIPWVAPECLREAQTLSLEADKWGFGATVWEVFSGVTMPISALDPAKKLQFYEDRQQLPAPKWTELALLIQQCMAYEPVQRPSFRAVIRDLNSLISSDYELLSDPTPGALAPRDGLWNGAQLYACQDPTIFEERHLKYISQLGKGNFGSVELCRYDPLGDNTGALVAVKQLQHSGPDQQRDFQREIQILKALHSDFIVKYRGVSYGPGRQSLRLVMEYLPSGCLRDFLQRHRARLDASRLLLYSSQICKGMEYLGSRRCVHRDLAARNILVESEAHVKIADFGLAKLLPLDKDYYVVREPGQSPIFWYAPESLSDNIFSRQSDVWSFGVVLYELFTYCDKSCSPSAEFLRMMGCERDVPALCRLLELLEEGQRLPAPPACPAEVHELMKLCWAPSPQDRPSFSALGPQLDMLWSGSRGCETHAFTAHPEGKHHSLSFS
Assay: Enzymatic Inhibition Assay
Text: LC/MS grade water and acetonitrile (ACN), were purchased from HoneyWell, Burdick & Jackson (Muskegon, Mich., USA).

SMILES	IC50 [nM]
N#CCC1CCC(n2c(CC(=O)NC3CCOCC3)nc3cnc4[nH]ccc4c32)CC1 (stereo unspecified) [US11066406, Ex. 5]	23.1
CC(C)(C#N)CNC(=O)Cc1nc2cnc3[nH]ccc3c2n1C1CCC(CC#N)CC1 (stereo unspecified) [US11066406, Ex. 7]	98.4
Cn1cc(NC(=O)Cc2nc3cnc4[nH]ccc4c3n2C2CCC(CC#N)CC2)cn1 (stereo unspecified) [US11066406, Ex. 9]	79.9
N#CCC1CCC(n2c(CC(=O)NCC3(O)CCC3)nc3cnc4[nH]ccc4c32)CC1 (stereo unspecified) [US11066406, Ex. 8]	75.6
N#CCC1(n2c(CC(=O)NCC3CCOCC3)nc3cnc4[nH]ccc4c32)CCCCC1 [US11066406, Ex. 6]	28.2
N#CCC1CCC(n2c(CC(=O)NCC3(O)CC3)nc3cnc4[nH]ccc4c32)CC1 (stereo unspecified) [US11066406, Ex. 12]	101
N#CCCNC(=O)Cc1nc2cnc3[nH]ccc3c2n1C1CCC(CC#N)CC1 (stereo unspecified) [US11066406, Ex. 4]	96.2
N#CC[C@H]1CC[C@H](n2c(CC(=O)NCC3CC3)nc3cnc4[nH]ccc4c32)CC1 [US11066406, Ex. 3]	82.8
N#CCC1CCC(n2c(CC(=O)Nc3cc[nH]n3)nc3cnc4[nH]ccc4c32)CC1 (stereo unspecified) [US11066406, Ex. 11]	30.3
N#CCC1CCC(n2c(CC(=O)NC34CCC(CC#N)(CC3)C4)nc3cnc4[nH]ccc4c32)CC1 (stereo unspecified) [US11066406, Ex. 10]	87.5
CC(C)(O)CNC(=O)Cc1nc2cnc3[nH]ccc3c2n1C1CCC(CC#N)CC1 (stereo unspecified) [US11066406, Ex. 1]	92.2

From BindingDB's records for patent US11066406 (Janssen Pharmaceutica, 2021)
